Data published in publication PMC4506557 (Chemmedchem, 2014).

How the values were obtained:
Type in all cases: biochemical
Settings in all cases: at 10 μM; single dose, triplicate
MMP-14 = MMP-14 fluorometric FRET protease assay
MMP-3 = MMP-3 fluorometric FRET protease assay
MMP-12 = MMP-12 fluorometric FRET protease assay
MMP-1 = MMP-1 fluorometric FRET protease assay
MMP-7 = MMP-7 fluorometric FRET protease assay
MMP-9 = MMP-9 fluorometric FRET protease assay
MMP-2 = MMP-2 fluorometric FRET protease assay
MMP-8 = MMP-8 fluorometric FRET protease assay

O=C(O)CCCOc1cccc(CNC(=O)C#Cc2cn(Cc3ccc(C(=O)O)cc3)c(=O)[nH]c2=O)c1 [Compound 4, 4-({5-[2-({[3-(3-carboxypropoxy)phenyl]methyl}carbamoyl)eth-1-yn-1-yl]-2,4-dioxo-1,2,3,4-tetrahydropyrimidin-1-yl}methyl)benzoic acid]
<50 % inhibition at 10 μM: MMP-14 inhibition (MMP-14) | MMP-3 inhibition (MMP-3) | MMP-12 inhibition (MMP-12) | MMP-1 inhibition (MMP-1) | MMP-7 inhibition (MMP-7) | MMP-9 inhibition (MMP-9) | MMP-2 inhibition (MMP-2) | MMP-8 inhibition (MMP-8)
